# Data published in the NIST ThermoML archive (doi:10.1007/s10765-012-1371-1).
# Numbers after ± are expanded uncertainties.
# Experiment: not given
# Settings: 283.15 K; 101 kPa; Liquid
row,SMILES,viscosity [mPa·s]
1,CCCCOCC [butyl ethyl ether],0.4796 ± 0.0091
2,CCCCCl [1-chlorobutane],0.4993 ± 0.0094
3,CC(C)CCl [1-chloro-2-methylpropane],0.5155 ± 0.0096
4,CCC(C)Cl (configuration not stated) [2-chlorobutane],0.4631 ± 0.0088
5,COC(C)(C)C [2-methoxy-2-methylpropane],0.3897 ± 0.0078

# Same assay, conditions: 288.15 K; 101 kPa; Liquid
row,SMILES,viscosity [mPa·s]
1,CCCCOCC [butyl ethyl ether],0.4509 ± 0.0087
2,CCCCCl [1-chlorobutane],0.4701 ± 0.009
3,CC(C)CCl [1-chloro-2-methylpropane],0.4833 ± 0.0092
4,CCC(C)Cl (configuration not stated) [2-chlorobutane],0.4365 ± 0.0084
5,COC(C)(C)C [2-methoxy-2-methylpropane],0.364 ± 0.0074

# Same assay, conditions: 293.15 K; 101 kPa; Liquid
row,SMILES,viscosity [mPa·s]
1,CCCCOCC [butyl ethyl ether],0.4242 ± 0.0083
2,CCCCCl [1-chlorobutane],0.4433 ± 0.0085
3,CC(C)CCl [1-chloro-2-methylpropane],0.454 ± 0.0087
4,CCC(C)Cl (configuration not stated) [2-chlorobutane],0.4167 ± 0.0081
5,COC(C)(C)C [2-methoxy-2-methylpropane],0.3482 ± 0.0071

# Same assay, conditions: 298.15 K; 101 kPa; Liquid
row,SMILES,viscosity [mPa·s]
1,CCCCOCC [butyl ethyl ether],0.399 ± 0.0079
2,CCCCCl [1-chlorobutane],0.4214 ± 0.0082
3,CC(C)CCl [1-chloro-2-methylpropane],0.4296 ± 0.0083
4,CCC(C)Cl (configuration not stated) [2-chlorobutane],0.3993 ± 0.0079
5,COC(C)(C)C [2-methoxy-2-methylpropane],0.3327 ± 0.0069

# Same assay, conditions: 303.15 K; 101 kPa; Liquid
row,SMILES,viscosity [mPa·s]
1,CCCCOCC [butyl ethyl ether],0.3756 ± 0.0075
2,CCCCCl [1-chlorobutane],0.405 ± 0.0079
3,CC(C)CCl [1-chloro-2-methylpropane],0.4112 ± 0.008
4,CCC(C)Cl (configuration not stated) [2-chlorobutane],0.38 ± 0.0076
5,COC(C)(C)C [2-methoxy-2-methylpropane],0.3152 ± 0.0066

# Same assay, conditions: 308.15 K; 101 kPa; Liquid
row,SMILES,viscosity [mPa·s]
1,CCCCOCC [butyl ethyl ether],0.356 ± 0.0072
2,CCCCCl [1-chlorobutane],0.3885 ± 0.0077
3,CC(C)CCl [1-chloro-2-methylpropane],0.3921 ± 0.0078
4,CCC(C)Cl (configuration not stated) [2-chlorobutane],0.3615 ± 0.0073
5,COC(C)(C)C [2-methoxy-2-methylpropane],0.2994 ± 0.0064

# Same assay, conditions: 313.15 K; 101 kPa; Liquid
row,SMILES,viscosity [mPa·s]
1,CCCCOCC [butyl ethyl ether],0.3416 ± 0.007
2,CCCCCl [1-chlorobutane],0.3642 ± 0.0074
3,CC(C)CCl [1-chloro-2-methylpropane],0.3726 ± 0.0075
4,CCC(C)Cl (configuration not stated) [2-chlorobutane],0.3443 ± 0.0071
5,COC(C)(C)C [2-methoxy-2-methylpropane],0.2846 ± 0.0062

# Experiment: xn = mol fraction of the nth substance listed
# Settings: 283.15 K; 101 kPa; Liquid; x1 = 1
row,SMILES,viscosity [mPa·s]
1,CCCCCl [1-chlorobutane] + CCCCOCC,0.4993 ± 0.0094
2,CCC(C)Cl (configuration not stated) [2-chlorobutane] + CCCCOCC,0.4631 ± 0.0088
3,CC(C)CCl [1-chloro-2-methylpropane] + CCCCOCC,0.5155 ± 0.0096

# Same assay, conditions: 283.15 K; 101 kPa; Liquid; x2 = 0
row,SMILES,viscosity [mPa·s]
1,COC(C)(C)C [2-methoxy-2-methylpropane] + CCCCCl,0.3897 ± 0.0078
2,COC(C)(C)C [2-methoxy-2-methylpropane] + CC(C)CCl,0.3897 ± 0.0078
3,COC(C)(C)C [2-methoxy-2-methylpropane] + CCC(C)Cl,0.3897 ± 0.0078

# Same assay, conditions: 288.15 K; 101 kPa; Liquid; x1 = 1
row,SMILES,viscosity [mPa·s]
1,CCCCCl [1-chlorobutane] + CCCCOCC,0.4701 ± 0.009
2,CCC(C)Cl (configuration not stated) [2-chlorobutane] + CCCCOCC,0.4365 ± 0.0084
3,CC(C)CCl [1-chloro-2-methylpropane] + CCCCOCC,0.4833 ± 0.0092

# Same assay, conditions: 288.15 K; 101 kPa; Liquid; x2 = 0
row,SMILES,viscosity [mPa·s]
1,COC(C)(C)C [2-methoxy-2-methylpropane] + CCCCCl,0.364 ± 0.0074
2,COC(C)(C)C [2-methoxy-2-methylpropane] + CC(C)CCl,0.364 ± 0.0074
3,COC(C)(C)C [2-methoxy-2-methylpropane] + CCC(C)Cl,0.364 ± 0.0074

# Same assay, conditions: 293.15 K; 101 kPa; Liquid; x1 = 1
row,SMILES,viscosity [mPa·s]
1,CCCCCl [1-chlorobutane] + CCCCOCC,0.4433 ± 0.0085
2,CCC(C)Cl (configuration not stated) [2-chlorobutane] + CCCCOCC,0.4167 ± 0.0081
3,CC(C)CCl [1-chloro-2-methylpropane] + CCCCOCC,0.454 ± 0.0087

# Same assay, conditions: 293.15 K; 101 kPa; Liquid; x2 = 0
row,SMILES,viscosity [mPa·s]
1,COC(C)(C)C [2-methoxy-2-methylpropane] + CCCCCl,0.3482 ± 0.0071
2,COC(C)(C)C [2-methoxy-2-methylpropane] + CC(C)CCl,0.3482 ± 0.0071
3,COC(C)(C)C [2-methoxy-2-methylpropane] + CCC(C)Cl,0.3482 ± 0.0071

# Same assay, conditions: 298.15 K; 101 kPa; Liquid; x1 = 1
row,SMILES,viscosity [mPa·s]
1,CCCCCl [1-chlorobutane] + CCCCOCC,0.4214 ± 0.0082
2,CCC(C)Cl (configuration not stated) [2-chlorobutane] + CCCCOCC,0.3993 ± 0.0079
3,CC(C)CCl [1-chloro-2-methylpropane] + CCCCOCC,0.4296 ± 0.0083

# Same assay, conditions: 298.15 K; 101 kPa; Liquid; x2 = 0
row,SMILES,viscosity [mPa·s]
1,COC(C)(C)C [2-methoxy-2-methylpropane] + CCCCCl,0.3327 ± 0.0069
2,COC(C)(C)C [2-methoxy-2-methylpropane] + CC(C)CCl,0.3327 ± 0.0069
3,COC(C)(C)C [2-methoxy-2-methylpropane] + CCC(C)Cl,0.3327 ± 0.0069

# Same assay, conditions: 303.15 K; 101 kPa; Liquid; x1 = 1
row,SMILES,viscosity [mPa·s]
1,CCCCCl [1-chlorobutane] + CCCCOCC,0.405 ± 0.0079
2,CCC(C)Cl (configuration not stated) [2-chlorobutane] + CCCCOCC,0.38 ± 0.0076
3,CC(C)CCl [1-chloro-2-methylpropane] + CCCCOCC,0.4112 ± 0.008

# Same assay, conditions: 303.15 K; 101 kPa; Liquid; x2 = 0
row,SMILES,viscosity [mPa·s]
1,COC(C)(C)C [2-methoxy-2-methylpropane] + CCCCCl,0.3152 ± 0.0066
2,COC(C)(C)C [2-methoxy-2-methylpropane] + CC(C)CCl,0.3152 ± 0.0066
3,COC(C)(C)C [2-methoxy-2-methylpropane] + CCC(C)Cl,0.3152 ± 0.0066

# Same assay, conditions: 308.15 K; 101 kPa; Liquid; x1 = 1
row,SMILES,viscosity [mPa·s]
1,CCCCCl [1-chlorobutane] + CCCCOCC,0.3885 ± 0.0077
2,CCC(C)Cl (configuration not stated) [2-chlorobutane] + CCCCOCC,0.3615 ± 0.0073
3,CC(C)CCl [1-chloro-2-methylpropane] + CCCCOCC,0.3921 ± 0.0078

# Same assay, conditions: 308.15 K; 101 kPa; Liquid; x2 = 0
row,SMILES,viscosity [mPa·s]
1,COC(C)(C)C [2-methoxy-2-methylpropane] + CCCCCl,0.2994 ± 0.0064
2,COC(C)(C)C [2-methoxy-2-methylpropane] + CC(C)CCl,0.2994 ± 0.0064
3,COC(C)(C)C [2-methoxy-2-methylpropane] + CCC(C)Cl,0.2994 ± 0.0064

# Same assay, conditions: 313.15 K; 101 kPa; Liquid; x1 = 1
row,SMILES,viscosity [mPa·s]
1,CCCCCl [1-chlorobutane] + CCCCOCC,0.3642 ± 0.0074
2,CCC(C)Cl (configuration not stated) [2-chlorobutane] + CCCCOCC,0.3443 ± 0.0071
3,CC(C)CCl [1-chloro-2-methylpropane] + CCCCOCC,0.3726 ± 0.0075

# Same assay, conditions: 313.15 K; 101 kPa; Liquid; x2 = 0
row,SMILES,viscosity [mPa·s]
1,COC(C)(C)C [2-methoxy-2-methylpropane] + CCCCCl,0.2846 ± 0.0062
2,COC(C)(C)C [2-methoxy-2-methylpropane] + CC(C)CCl,0.2846 ± 0.0062
3,COC(C)(C)C [2-methoxy-2-methylpropane] + CCC(C)Cl,0.2846 ± 0.0062
